Reference: publication PMC12154549, “Structure-based design of an aromatic helical foldamer–protein interface” (Chemical Science, 2025)
Like-named read-outs stand apart in the source and are kept apart here.

Assays:
HCAII [1] = molecular target: T1, HCAII (Homo sapiens, UniProt P00918); assay: Fluorescence competition assay: HCAII titrated into foldamer or ligand plus probe 23; conditions: [competing species] = [23] = 50 nM; 50 mM HEPES pH 7.2; 1:1 binding isotherm, 380-600 nm; repeatable within ±15%
T1 construct: made in house
From the text: We turned to a recently published assay that exploits the quenching of the fluorescence of nanomolar ligand 23 upon binding to HCAII (Fig. 8a).[32] The low KD value of 23 makes it suitable to perform competition (displacement) assays with compounds binding in the same concentration range. However, some optimization of the assay was required to perform experiments with foldamer-containing ligands because the foldamers absorb both at the excitation (373 nm) and emission (400–450 nm) wavelengths of 23. Performing classical direct displacement titrations where a foldamer is added to a solution containing 23 and HCAII would be complicated by variable inner filter effects. […] For fluorescence measurements: 50 mM HEPES (4-(2-hydroxyethyl)-1-piperazineethanesulfonic acid) at pH 7.2. […] It appears that the fluorescence drops upon adding HCAII, i.e. that ligand 23 binds to HCAII, in presence of the foldamer faster than predicted by the binding model. A better fit can be artificially obtained by inputting HCAII concentrations 20% larger than those measured or foldamer concentrations 20% lower than those measured in the curve fitting program. […]
4.2 Fluorescence binding assay […]
2. To the solution of 23 (50 nM) in HEPES buffer (50 mM, pH 7.2) in the fluorescence cuvette (2 mL), incremental volumes of a stock solution of HCAII (11 µM) in HEPES buffer were added. […]

HCAII [2] = molecular target: T1, HCAII; parameters: method as in PMID 30395443; conditions: HCAII immobilized; 2:98 DMSO/PBS pH 7.4, 25 °C; ref 8a; read-out: KD by SPR; cited from earlier work
HCAII [3] = molecular target: T1, HCAII; assay: Direct fluorescence titration of probe 23 with HCAII; format: binding; conditions: 23 50 nM, 50 mM HEPES pH 7.2, RT, 1:1 model; read-out: KD of 23·HCAII complex
Description: 4.2 Fluorescence binding assay
This fluorescence assay was adapted from the paper of Anzenbacher.18 All fluorescence titrations were done in aqueous 50 mM HEPES buffer (pH = 7.2) at room temperature , without degassing of the samples and using a qua rtz fluorescence cuvette with 1 cm path length on Varian Cary Eclipse Spectrophotometer 05813. The titration assays were carried out in two parts: 1) sensor - protein titration (Figure S21); 2) sensor-foldamer competition assay (Figure S24). Several experiments were repeated and validated a reproducibility within 15% error.
Figure S21. Schematic procedure of the titration experiment between indicator 23 and HCAII (adapted from literature18).
4.2.1 KD measurement of the 23•HCAII complex
1. […]
2. To the solution of 23 (50 nM) in HEPES buffer (50 mM, pH 7.2) in the fluorescence cuvette (2 mL), incremental volumes of a stock solution of HCAII (11 µM) in HEPES buffer were added.
After each addition and gentle agitation, the resulting mixture was incubated for 5 min at RT. The intensity of fluorescence (IF) was then recorded from 380 nm to 600 nm (λex = 373 nm).   […]
software.19 For curve fitting, the binding model was set to 1:1. The spectra of all emitting species were recorded from 380 nm to 600 nm (λex = 373 nm) in separate experiments and set as “unknown spectrum”. The KD value was determined considering all the wavelengths recorded. […]

| Kd (HCAII [1]) [nM] | Kd (HCAII [3]) [nM] | Structure (SMILES) | Kd (HCAII [2]) [nM] |
| --- | --- | --- | --- |
| 10 |  | NCCCCOc1cccc(CNC(=O)c2ccc(S(N)(=O)=O)cc2)c1 [ligand 22] | 5 |
|  | 1.69 | COc1ccc2cc(C(=O)Nc3nnc(S(N)(=O)=O)s3)c(=O)oc2c1 [probe 23] |  |
